The compounds below were run on bilirubin oxidase (assay: Substrate specificity by oxygen consumption rate (electrode oxygen meter)). Details: 0.1 mM substrate, 0.1 mM HgCl2 added.
Assay type: biochemical, Penicillium janthinellum
Protocol: The intrinsic substrate specificity for various substrates was estimated based upon the oxygen consumption rate using an electrode oxygen meter. The measurements were effected under an addition of HgCl2 to the substrate solution up to a concentration of 0.1 mM. For the measurements, 0.1 mM solution of the substrate with addition of 0.1 ml of the enzyme solution as employed in the determination of the enzyme activity was used. […] Thus, it was confirmed that the bilirubin oxidase according to the present invention has a very high specificity to bilirubin.
`Cc1c(N)c(=O)n(-c2ccccc2)n1C` [4-Aminoantipyrin] was tested, and the “Relative Activity (substrate specificity)” value (shortened to “Relative Activity”) was 0%.
With `C=CC1=C(C)/C(=C/c2[nH]c(Cc3[nH]c(/C=C4\NC(=O)C(C)=C4C=C)c(C)c3CCC(=O)O)c(CCC(=O)O)c2C)NC1=O` [Bilirubin] the “Relative Activity” value was 100%.
In the case of `C=CC1=C(C)/C(=C/C2=NC(=C\c3[nH]c(/C=C4\NC(=O)C(C)=C4C=C)c(C)c3CCC(=O)O)/C(CCC(=O)O)=C2C)NC1=O` [Biliverdin], the “Relative Activity” value is reported as 0%.
`Oc1ccccc1O` [Catechol] was tested, and the “Relative Activity” value was 0%.
`CC1=C(CCC(=O)O)c2cc3[nH]c(cc4nc(cc5[nH]c(cc1n2)c(C)c5C(C)O)C(C)=C4C(C)O)c(C)c3CCC(=O)O` (stereo not shown) [Hematoporphyrin] was tested, and the “Relative Activity” value was 0%.
In the case of `Oc1ccc(O)cc1` [Hydroquinone], the “Relative Activity” value is reported as 0%.
With `Oc1ccccc1` [Phenol] the “Relative Activity” value was 0%.
In the case of `Oc1cccc(O)c1O` [Pyrogallol], the “Relative Activity” value is reported as 0%.
Chlorophyll was tested, and the “Relative Activity” value was 0%.
With Chlorophyllin the “Relative Activity” value was 0%.
Hemin was tested, and the “Relative Activity” value was 0%.
In the case of Hemoglobin, the “Relative Activity” value is reported as 0%.

Each compound was assayed on bilirubin oxidase (assay: not given). Details: additive (metal ion, EDTA) 1 mM; activity without addition = 100; 10 min.
Assay type: biochemical, Penicillium janthinellum
For `[Cl][Al]([Cl])[Cl]` [AlCl3], the “Relative Acty. (relative enzyme activity with additive)” value was 88%.
For `[Ba+2].[Cl-].[Cl-]` [BaCl2], the “Relative Acty. (relative enzyme activity with additive)” value was 49%.
In the case of `[Ca+2].[Cl-].[Cl-]` [CaCl2], the “Relative Acty. (relative enzyme activity with additive)” value is reported as 31%.
In the case of `[Cl-].[Cl-].[Co+2]` [CoCl2], the “Relative Acty. (relative enzyme activity with additive)” value is reported as 0%.
With `[Cl-].[Cs+]` [CsCl] the “Relative Acty. (relative enzyme activity with additive)” value was 139%.
`[Cl][Cu][Cl]` [CuCL2] was tested, and the “Relative Acty. (relative enzyme activity with additive)” value was 0%.
With `[Cl][Fe]([Cl])[Cl]` [FeCl3] the “Relative Acty. (relative enzyme activity with additive)” value was 113%.
For `[Cl-].[K+]` [KCl], the “Relative Acty. (relative enzyme activity with additive)” value was 106%.
`[Cl-].[Cl-].[Mg+2]` [MgCl2] was tested, and the “Relative Acty. (relative enzyme activity with additive)” value was 96%.
With `[Cl][Mn][Cl]` [MnCl2] the “Relative Acty. (relative enzyme activity with additive)” value was 10%.
With `Cl.N` [NH4 Cl] the “Relative Acty. (relative enzyme activity with additive)” value was 108%.
For `[N-]=[N+]=[N-].[Na+]` [NaN3], the “Relative Acty. (relative enzyme activity with additive)” value was 106%.
In the case of `[Cl][Ni][Cl]` [NiCl2], the “Relative Acty. (relative enzyme activity with additive)” value is reported as 43%.
In the case of `[Cl][Pb][Cl]` [PbCl2], the “Relative Acty. (relative enzyme activity with additive)” value is reported as 377%.
For `[Cl-].[Cl-].[Zn+2]` [ZnCl2], the “Relative Acty. (relative enzyme activity with additive)” value was 60%.
With Triazole the “Relative Acty. (relative enzyme activity with additive)” value was 105%.

Same assay, conditions: bilirubin oxidase, 10 min
In the case of `CCCCCCCCCCCCCCCC[N+](C)(C)C.[Br-]` [CTMB, Cetyl trimethylammonium bromide], the “Relative Acty. (relative enzyme activity with additive)” value is reported as 277%.
`CCCCCCCCCCCCCCCC[N+](C)(C)C.[Cl-]` [CTMC, Cetyl trimethylammonium chloride] was tested, and the “Relative Acty. (relative enzyme activity with additive)” value was 316%.

Same assay, conditions: bilirubin oxidase, 10 min, 1000 µM
In the case of `O=C(O)CN(CCN(CC(=O)O)CC(=O)O)CC(=O)O` [EDTA], the “Relative Acty. (relative enzyme activity with additive)” value is reported as 102%.
With `NO` [Hydroxylamine] the “Relative Acty. (relative enzyme activity with additive)” value was 108%.
For `[Cl-].[Li+]` [LiCl], the “Relative Acty. (relative enzyme activity with additive)” value was 112%.
With `[Cl-].[Na+]` [NaCl] the “Relative Acty. (relative enzyme activity with additive)” value was 106%.

Same assay, conditions: metal ion 1 mM or surfactant 0.05%
In the case of `CCCCCCCCCCCCCCCC[N+](C)(C)C.[Cl-]` [CTMC, Cetyl trimethylammonium chloride], the “Effect of additive on enzyme activity (in words)” value (from here on “Effect of additive”) is reported as “accelerated considerably”.
With `[Cl-].[Cl-].[Co+2]` [CoCl2] the “Effect of additive” value was “inhibited”.
For `[Cl][Cu][Cl]` [CuCL2], the “Effect of additive” value was “inhibited”.
For `[Cl][Hg][Cl]` [HgCL2], the “Effect of additive” value was “accelerated considerably”.
In the case of `[Cl][Pb][Cl]` [PbCl2], the “Effect of additive” value is reported as “accelerated considerably”.

The compounds below were run on bilirubin oxidase (assay: Km value determination). Details: 0.1 ml enzyme solution, 2-20 mg bilirubin substrate solutions.
Assay type: biochemical, Penicillium janthinellum
With `C=CC1=C(C)/C(=C/c2[nH]c(Cc3[nH]c(/C=C4\NC(=O)C(C)=C4C=C)c(C)c3CCC(=O)O)c(CCC(=O)O)c2C)NC1=O` [Bilirubin] the Km was 110 µM.
